Results as given in the supplement of paper PMC10307832.

Key:
Assay in all cases: relative viability (nuclei count vs DMSO), 5 days (fraction); higher = more cells survive
BI-2536 + Tozasertib = compound: CC[C@@H]1C(=O)N(C)c2cnc(Nc3ccc(C(=O)NC4CCN(C)CC4)cc3OC)nc2N1C1CCCC1 [BI-2536] + Cc1cc(Nc2cc(N3CCN(C)CC3)nc(Sc3ccc(NC(=O)C4CC4)cc3)n2)n[nH]1 [Tozasertib] (partner 0.1 µM)
In short: (§1)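 One day after seeding in 1536-well plates, lung cancer cell lines were dosed by pin tool. Dosing was either single-drug or a fixed anchor-drug dose plus five library-drug doses (not always all listed) in √10 steps. After 5 days, nuclei were stained in one fix-and-stain step and counted on 4× images, and relative viability is the nuclei count of treated wells over that of vehicle wells, given as the median of duplicate plates.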

BI-2536 + Olaparib = compound: CC[C@@H]1C(=O)N(C)c2cnc(Nc3ccc(C(=O)NC4CCN(C)CC4)cc3OC)nc2N1C1CCCC1 [BI-2536] + O=C(c1cc(Cc2n[nH]c(=O)c3ccccc23)ccc1F)N1CCN(C(=O)C2CC2)CC1 [Olaparib] (partner 8 µM)
In short: as §1

BI-2536 + Alpelisib = compound: CC[C@@H]1C(=O)N(C)c2cnc(Nc3ccc(C(=O)NC4CCN(C)CC4)cc3OC)nc2N1C1CCCC1 [BI-2536] + Cc1nc(NC(=O)N2CCC[C@H]2C(N)=O)sc1-c1ccnc(C(C)(C)C(F)(F)F)c1 [Alpelisib] (partner 2 µM)
In short: as §1

[1] = compound: CC1CC(=O)N(C2=CN=C(N=C2N1C3CCCC3)NC4=C(C=C(C=C4)C(=O)NC5CCN(CC5)C)OC)C [NPK76-II-72-1] + CS(=O)(=O)CCNCc1ccc(-c2ccc3ncnc(Nc4ccc(OCc5cccc(F)c5)c(Cl)c4)c3c2)o1 [Lapatinib] (partner 2 µM)
In short: as §1

Cell Line | relative viability (BI-2536 + Tozasertib; first compound 0.01 µM) | relative viability (BI-2536 + Tozasertib; first compound 0.03162 µM) | relative viability (BI-2536 + Tozasertib; first compound 0.1 µM) | relative viability (BI-2536 + Tozasertib; first compound 0.3162 µM) | relative viability (BI-2536 + Tozasertib; first compound 1 µM) | relative viability (BI-2536 + Olaparib; first compound 0.01 µM) | relative viability (BI-2536 + Olaparib; first compound 0.03162 µM) | relative viability (BI-2536 + Olaparib; first compound 0.1 µM) | relative viability (BI-2536 + Olaparib; first compound 0.3162 µM) | relative viability (BI-2536 + Olaparib; first compound 1 µM) | relative viability (BI-2536 + Alpelisib; first compound 0.01 µM) | relative viability (BI-2536 + Alpelisib; first compound 0.03162 µM) | relative viability (BI-2536 + Alpelisib; first compound 0.1 µM) | relative viability (BI-2536 + Alpelisib; first compound 0.3162 µM) | relative viability (BI-2536 + Alpelisib; first compound 1 µM) | relative viability ([1]; first compound 0.01 µM) | relative viability ([1]; first compound 0.03162 µM) | relative viability ([1]; first compound 0.1 µM) | relative viability ([1]; first compound 0.3162 µM) | relative viability ([1]; first compound 1 µM)
LCLC-103H | 0.471 | 0.412 | 0.284 | 0.292 | 0.252 | 0.742 | 0.86 | 0.77 | 0.358 | 0.216 | 1.05 | 0.925 | 0.929 | 0.556 | 0.125 |  |  |  |  | 
LK-2 | 0.152 | 0.151 | 0.173 | 0.187 | 0.185 | 0.578 | 0.491 | 0.28 | 0.098 | 0.134 | 1.14 | 0.318 | 0.374 | 0.222 | 0.282 | 0.83 | 0.886 | 0.877 | 0.774 | 1.12
NCI-H441 | 0.557 | 0.352 | 0.274 | 0.293 | 0.31 | 0.522 | 0.354 | 0.171 | 0.148 | 0.148 | 0.613 | 0.235 | 0.148 | 0.168 | 0.178 |  |  |  |  | 
NCI-H522 | 0.488 | 0.581 | 0.634 | 0.447 | 0.412 | 0.655 | 0.594 | 0.689 | 0.364 | 0.316 |  |  |  |  |  |  |  |  |  | 
NCI-H1299 |  |  |  |  |  | 1.01 | 0.907 | 0.828 | 0.237 | 0.221 | 0.952 | 1.15 | 1 | 0.278 | 0.339 | 0.949 | 1.01 | 0.957 | 0.961 | 0.954
NCI-H1563 |  |  |  |  |  |  |  |  |  |  | 0.858 | 0.933 | 0.928 | 0.598 | 0.583 | 0.976 | 1.03 | 0.946 | 0.942 | 1.02
NCI-H1623 | 0.478 | 0.448 | 0.383 | 0.402 | 0.328 |  |  |  |  |  |  |  |  |  |  |  |  |  |  | 
NCI-H1648 | 0.437 | 0.414 | 0.336 | 0.159 | 0.22 | 0.794 | 0.887 | 0.545 | 0.23 | 0.275 |  |  |  |  |  |  |  |  |  | 
NCI-H1650 | 0.403 | 0.283 | 0.252 | 0.179 | 0.196 | 0.866 | 0.689 | 0.609 | 0.166 | 0.143 |  |  |  |  |  | 0.859 | 0.756 | 0.912 | 0.835 | 0.86
NCI-H1703 |  |  |  |  |  | 0.426 | 0.315 | 0.209 | 0.102 | 0.111 | 0.347 | 0.247 | 0.279 | 0.0951 | 0.123 | 1.16 | 1.2 | 1.21 | 1.05 | 1.2
NCI-H1792 |  |  |  |  |  | 0.543 | 0.374 | 0.316 | 0.0436 | 0.0344 | 0.786 | 0.804 | 0.643 | 0.34 | 0.134 | 0.894 | 0.965 | 0.923 | 0.964 | 1.01
NCI-H2342 | 0.449 | 0.508 | 0.468 | 0.378 | 0.294 |  | 0.424 | 0.367 | 0.319 | 0.26 |  |  |  |  |  |  |  |  |  | 
SW 900 | 0.566 | 0.694 | 0.418 | 0.278 | 0.173 | 0.804 | 1.05 | 0.691 | 0.215 | 0.153 |  |  |  |  |  |  |  |  |  | 
